Publication PMC11314410, “Synthesis and Anti-Trypanosoma cruzi Activity of New Pyrazole-Thiadiazole Scaffolds” (Molecules, 2024)
Several values for one entry are separate records, joined by “and”; a condition that tells them apart may be missing. Identical values can stand only once. Like-named read-outs stand apart in the source and are kept apart here.

Columns and labels:
[1] = Cardiac toxicity in 2D cardiac monolayers (CellTiter-Glo, 72 h); assay type: cell-based, Swiss webster mice; conditions: Swiss webster, mouse, primary cardiac muscle cell monolayers (2D culture), ATP levels
Protocol: The primary culture of heart muscle cells was obtained from fetuses of Swiss webster mice. The heart was removed and the ventricles were fragmented and subjected to dissociation with trypsin and collagenase type II (Worthington Biochemical Corporation, Lakewood, USA) dissociation solution. Cell monolayers were employed to evaluate drug-induced cardiotoxicity.
(§1) The 2D cardiac cultures (5 × 10^4 cells/well) and 3D cardiac microtissues (2.5 × 10^4 cells/well) were incubated for 72 h at 37 °C with pyrazole-thiadiazole candidates followed by ATP detection by CellTiter-Glo [86]. A minimum of 3 independent assays were performed in duplicate.

[2] = system: Intracellular amastigotes of T. cruzi (Dm28c-Luc); assay: microbe, parasite or virus in culture; assay type: cell-based, Trypanosoma cruzi; conditions: for IC50 / IC90: Trypanosoma cruzi; for IC90: read-out: Anti-T. cruzi Activity Intracellular Amastigotes IC90
Protocol: (§2) Genetically modified T. cruzi parasites, of clone Dm28c (TcI) expressing the firefly luciferase enzyme gene (Dm28c-Luc), were kindly provided by Dr. Cristina Henriques. T. cruzi Dm28c-Luc was maintained in a Vero cell cultivated in RPMI 1640 medium supplemented with 10% FBS. At 4-day post-infection (dpi), trypomastigotes, released in the cell culture supernatant, were harvested, followed by sedimentation (4000 rpm/20 min/4 °C) and quantification in a Neubauer chamber. Isolated trypomastigotes were used in the phenotypic screening assays as well as the antiparasitic activity in 3D cardiac microtissues, recovery (washout), and drug combination assays.
The activity of pyrazole-thiadiazole derivatives against intracellular amastigotes was evaluated in 24 h-T. cruzi infected Vero cell cultures (1.5 × 10^4 cells/well) at a 10:1 ratio. The cultures were washed and incubated with serial dilutions of the derivatives or Bz (100–0.41 µM). Drug treatment was carried out for 72 h at 37 °C and the parasite viability was determined by luminescence readout after D-Luciferin substrate addition (300 µg/mL). The reading was performed in the Glomax reader. The cell cultures incubated with the culture medium containing dimethylsulphoxide (DMSO; concentration ≤ 1%) were used as the […]. The concentrations required to inhibit parasite viability by 50% (IC50) and 90% (IC90) were calculated using Prism GraphPad software (version 8.2.1). The selectivity index (SI), which measures the window between cytotoxicity (CC50) and anti-T. cruzi activity (IC50), was calculated as CC50/IC50. A minimum of 3 independent assays in duplicate were performed.

[3] = Cardiac toxicity in 3D cardiac spheroids (CellTiter-Glo, 72 h); assay type: cell-based, Swiss webster mice; conditions: Swiss webster, mouse, 3D cardiac microtissue (cardiac spheroids), ATP levels, read-out: Toxicity CC50 3D Culture
Protocol: (§3) Three-dimensional (3D) cardiac cells were obtained as previously described. Briefly, isolated cardiac muscle cells (2.5 × 10^4 cells/well) were seeded in 96-well U-bottom plates coated with agarose (1%) to form cell aggregates. Cardiac microtissue (7 days in culture) was employed to determine cardiotoxicity and drug efficacy in more complex systems. All animal-use procedures were approved by the Animal Care and Use Committee of Instituto Oswaldo Cruz (license L017/2022-A2).
as §1

[4] = system: T. cruzi (Dm28c-Luc) in Vero cell cultures; assay: Washout (recovery) assay in T. cruzi-infected Vero cell cultures; assay type: cell-based, Trypanosoma cruzi; conditions: for ALUmean of parasite load in cell monolayer, washout assay: 10 days treatment + 10 days without drug
Protocol: The culture medium of the untreated and treated infected cultures was replaced every 3 or 4 days by a fresh medium with or without the pyrazole-thiadiazole derivatives. The presence of free viable parasites in the culture supernatant was monitored at each medium change by adding luciferin (300 µg/mL) followed by readout on a Glomax microplate reader. At the endpoint, culture supernatants and cell monolayers were evaluated for viable parasites. Positive and negative controls were performed using Bz (150 µM) and DMSO (≤1%), respectively. A minimum of 3 independent experimental runs were performed with 12 replicates.

[5] = Toxicity in mammalian cells (CellTiter Glo, 72 h); assay type: cell-based; conditions: African green monkey, Vero cells; 72 h, ATP levels; read-out: Cytotoxicity Vero Cells CC50
Protocol: (§4) Vero cell cultures grown in RPMI 1640 medium containing 10% fetal bovine serum (FBS) were cultured at 37 °C in a humidified atmosphere of 5% CO2 [82]. The cultures were used for drug screening assays and to obtain culture-derived trypomastigotes of T. cruzi.
(§5) Vero cells (1.5 ×10^4 cells/well), cultivated for 24 h at 37 °C in white 96-well plates with clear bottoms, were used to assess the toxicity of the pyrazole-thiadiazole derivatives (series 1 and 2). After washing, the cells were incubated for 72 h at 37 °C with different drug concentrations (500–1.95 μM). Cell viability was measured by adding 20 μL/well of CellTiter Glo reagent (Promega Corporation, Madison, WI, USA). This cell viability kit generates a luminescent signal proportional to the amount of ATP. The luminescence readout was performed using the Glomax Microplate Reader (Promega Corporation, Madison, WI, USA). Thus, the 50% cytotoxicity concentration (CC50), which reduces the cell viability by 50% (CC50), was calculated with Prism GraphPad software (version 8.2.1).

Vero cells = assay: Toxicity in mammalian cells (CellTiter Glo, 72 h); assay type: cell-based
Protocol: as §4, §5

[6] = system: Trypomastigotes of T. cruzi (Dm28c-Luc); assay: microbe, parasite or virus in culture; assay type: cell-based, Trypanosoma cruzi; conditions: for IC50 / IC90: 24 h treatment; for IC50: mean ± SD, read-out: Anti-T. cruzi Activity Trypomastigotes IC50; for IC90: read-out: Anti-T. cruzi Activity Trypomastigotes IC90
Protocol: as §2
Drug screening was performed against clinically relevant forms of T. cruzi (amastigotes and trypomastigotes). Trypomastigotes, Dm28c-Luc (1 × 10^6 parasites/well), were added to 96-well plates and incubated with pyrazole-thiadiazole derivatives or Bz (100–0.41 µM). After 24 h of treatment (37 °C), the viability of the parasites was analyzed by adding a D-Luciferin solution (300 µg/mL) and luminescence was measured in the Glomax microplate reader.

[7] = system: T. cruzi (Dm28c-Luc) intracellular parasites in 3D cardiac spheroids; assay: Antiparasitic activity in T. cruzi-infected 3D cardiac microtissues; assay type: cell-based, Trypanosoma cruzi; conditions: 100 µM, 72 h
Protocol: as §3
Cardiac spheroids (2.5 × 10^4 cells/well), formed after 7 days of cultivation in a U-bottom plate, were infected for 24 h with trypomastigote forms of T. cruzi (Dm28c-Luc) at a ratio of 20:1 parasite-host cell. After washing, the drugs were added at concentrations of IC90, two times IC90, and 100 µM, respecting the CC20 value of cardiac spheroids as the maximum concentration. Bz was added at 100 µM. Luminescence measurements, which reveal the luciferase activity of the viable parasites, were performed after the addition of D-luciferin substrate (300 µg/mL). The luminescent signal was read in the Glomax reader and the results were represented in arbitrary luminescence units (ALU). The fluorescence microscopy images were also acquired from untreated and drug-treated infected 3D microtissues. Three-dimensional cultures were fixed with 4% paraformaldehyde in PBS and labeled with 4′,6-diamidino-2-phenylindole (DAPI). Images were acquired using a Zeiss Axio Imager M2 fluorescence microscope using Axio vision software (version 4.8).

Leishmania = system: Leishmania; parameters: method as in PMID 32492796; conditions: cited from earlier work
[8] = Vero, read-out: Intracellular Amastigotes pIC50 (converted)
[9] = Dm28c-Luc in Vero cells, 72 h treatment, mean ± SD, read-out: Anti-T. cruzi Activity Intracellular Amastigotes IC50
[10] = Dm28c-Luc in Vero cells, 72 h treatment, mean ± SD
[11] = Trypanosoma cruzi, 24 h, Dm28c-Luc

Row | Compound | IC50 [2, 8] [µM] | IC50 [2, 9] [µM] | IC90 [2, 10] [µM] | melting point [°C] | CC50 at 72 h [5] [µM] | IC50 [6, 11] [µM] | IC90 ([6]; Trypanosoma cruzi, Dm28c-Luc) [µM] | Intracellular Amastigotes SI (CC50 of Vero cells/IC50 of intracellular amastigotes) [2] | Trypomastigotes SI (CC50 of Vero cells/IC50 of trypomastigotes) [6] | also measured
1 | Nc1nnc(-c2cnn(-c3ccc(Cl)cc3Cl)c2)s1 [1c, 5-Amino-2-(1-(2,4-dichlorophenyl)-1H-pyrazol-4-yl)-1,3,4-thiadiazole] | 13.5 | 13.5 ± 4.47 | 42.3 ± 3.47 | 284 to 285 | > 500 | 21.7 | > 100 |  |  | CC50 at 72 h [1]: > 500 µM; CC50 at 72 h [3]: > 500 µM; ALUmean of parasite load in cell monolayer, washout assay ([4]; 150 µM): 57,103 ± 15,228 ALU; ALUmean of parasite load in cell monolayer, washout assay ([4]; 300 µM): 66,378 ± 14,991 ALU; inhibition at 150 µM ([4]; Trypanosoma cruzi, Vero, 150 µM, 11 dpi, read-out: Inhibition in the release of trypomastigotes): 52%; inhibition at 300 µM ([4]; Trypanosoma cruzi, Vero, 300 µM, 11 dpi, read-out: Inhibition in the release of trypomastigotes): 66%; Prevention of reactivation of infection after drug withdrawal ([4]; washout assay): trypanostatic action; CC20 for Vero cell monolayers (Vero cells): > 500 µM; Trypomastigotes IC75 ([6]; Dm28c-Luc, 24 h): 54.6 µM and 54.66 µM; IC50 ([6]; Dm28c-Luc): 21.7 ± 2.94 µM; ALUmean (luminescence, parasite load) in 3D cardiac microtissue [7]: 17,078 ± 2407 ALU; inhibition at 100 µM ([7]; Trypanosoma cruzi, vs infected untreated, read-out: Inhibition of parasite load in 3D cardiac microtissue): 57%
2 | Nc1nnc(-c2cnn(-c3ccc(Cl)cc3Cl)c2N)s1 [2c, 5-Amino-2-(5-amino-1-(2,4-dichlorophenyl)-1H-pyrazol-4-yl)-1,3,4-thiadiazole] | > 70.8 | > 70 | > 70 | 165 to 167 | > 500 | > 100 | > 100 | >7.14 | >5 | Reduction of the release of trypomastigotes ([4]; washout assay, concentration and day not stated): ≥ 82%
3 | Nc1nnc(-c2cnn(-c3ccc(F)cc3)c2N)s1 [2g, 5-Amino-2-(5-amino-1-(4-fluorophenyl)-1H-pyrazol-4-yl)-1,3,4-thiadiazole] | > 70.8 | > 70 | > 70 | 251 to 253 | > 500 | > 100 | > 100 | >7.14 | >5 | 
4 | Nc1nnc(-c2cnn(-c3cccc(F)c3)c2N)s1 [2h, 5-Amino-2-(5-amino-1-(3-fluorophenyl)-1H-pyrazol-4-yl)-1,3,4-thiadiazole] | > 70.8 | > 70 | > 70 | 285 to 286 | > 500 | > 100 | > 100 | >7.14 | >5 | 
5 | Nc1nnc(-c2cnn(-c3ccc(Br)cc3)c2N)s1 [2i, 5-Amino-2-(5-amino-1-(4-bromophenyl)-1H-pyrazol-4-yl)-1,3,4-thiadiazole] | 69.2 | 68.73 ± 0.05 | > 70 | 286 to 287 | > 500 | > 100 | > 100 | >7.58 | >5 | 
6 | Nc1nnc(-c2cnn(-c3cccc(Br)c3)c2N)s1 [2j, 5-Amino-2-(5-amino-1-(3-bromophenyl)-1H-pyrazol-4-yl)-1,3,4-thiadiazole] | > 70.8 | > 70 | > 70 | 245 to 246 | > 500 | > 100 | > 100 | >7.14 | >5 | 
7 | COc1ccc(-n2ncc(-c3nnc(N)s3)c2N)cc1 [2l, 5-Amino-2-(5-amino-1-(4-methoxyphenyl)-1H-pyrazol-4-yl)-1,3,4-thiadiazole] | > 70.8 | > 70 | > 70 | 303 to 305 | > 500 | > 100 | > 100 | >7.14 | >100 | 
8 | C[C@@H]1[C@H](O)[C@@H](C)/C=C/C=C/C=C/C=C/C=C/C=C/C=C/[C@H](O[C@@H]2O[C@H](C)[C@@H](O)[C@H](N)[C@@H]2O)C[C@@H]2O[C@](O)(C[C@@H](O)C[C@@H](O)[C@H](O)CC[C@@H](O)C[C@@H](O)CC(=O)O[C@H]1C)C[C@H](O)[C@H]2C(=O)O [amphotericin B] |  |  |  |  |  |  |  |  |  | EC50 (Leishmania; 2D model): 0.0349 µM; EC50 (Leishmania; 3D macrophage cultures): 0.0523 µM; Increase in the EC50 value of 3D vs 2D macrophage cultures (Leishmania): 33%
